From US20240076272A1, “Activators of Heme Regulated Inhibitor Kinase (HRI)” (The Brigham and Women`s Hospital, Inc., priority 2019, published 2024)
Where “and” joins values, the source holds several entries; their conditions need not be identical. Identical values can stand only once.

Tests used:
[1] = tested on: eIF2α phosphorylation (ATF-4 5′UTR luciferase reporter); assay: surrogate eIF2α phosphorylation dual-luciferase reporter (DLR) assay; type: cell-based; settings: F/R luciferase ratio normalized to DMSO wells (F/R=1); for fold induction at 1.25 µM: read-out: Fold stimulation of ATF-4 Surrogate eIF2α @ 1.25 μM; for fold induction at 5 µM: read-out: Fold stimulation of ATF-4 Surrogate eIF2α @ 5 μM
Description: The dual luciferase expression vector and other plasmids used in the Examples provided herein have been previously reported (see e.g., Ziegeler et al, J. Biol. Chem. 285 (2010) 15408-15419). The dual luciferase surrogate eIF2α phosphorylation assay, has also been previously reported (see e.g., Chen et al, Nat. Chem. Biol. 7 (2011) 610-616). Briefly, a dual Renilla and Firefly luciferase mammalian reporter vector that transcribes both mRNAs from the same bi-directional enhancer/promoter complex was utilized for generation of surrogate eIF2α phosphorylation assay (see e.g., Ziegeler et al, J. Biol. Chem. 285 (2010) 15408-15419). Both mRNAs contained the same 90 nucleotide plasmid derived 5′UTR. In addition, 5′UTR of the Firefly luciferase open reading frame was fused in-frame to the 267 nucleotide ATF-4 5′UTR (see e.g., Chen et al, Nat. Chem. Biol. 7 (2011) 610-616).
Cells expressing firefly and renilla luciferases were assayed with a dual glow luciferase assay kit, per manufacturer's instruction (Promega Inc., Madison, WI). The data calculations were carried out as the ratio of firefly to renilla luciferase signal (see e.g., Ziegeler et al, J. Biol. Chem. 285 (2010) 15408-15419). Dose-response curves were obtained, and triplicate data points were fitted to the logistical sigmoidal model using nonlinear least-squares regression performed in GraphPad Prism 6.
All newly synthesized N,N′-disubstituted ureas were initially evaluated by testing in the surrogate eIF2α phosphorylation dual-luciferase reporter (DLR) assay (see e.g., Chen et al, Nat. Chem. Biol. 7 (2011) 610-616; and Ziegeler et al, J. Biol. Chem. 285 (2010) 15408-15419). Briefly, this assay takes advantage of the fact that activated HRI phosphorylates eIF2α which inhibits eIF2 guanine nucleotide exchange factor eIF2B, responsible for exchanging the GDP in the eIF2·GDP complex for GTP. The reduction in the recycling of eIF2·GDP into eIF2·GTP interferes with the formation of eIF2·GTP·Met-tRNAi ternary complex. […] These include mRNA coding for activating transcription factor 4 (ATF-4) (see e.g., Aktas et al, Oncotarget, 4 (2013) 1606-1617; Aktas et al, Oncotarget, 6 (2015) 6902-6914; and Aktas et al, Proc. Natl. Acad. Sci. U.S.A. 95 (1998) 8280-8285).
In the present assay, firefly (F) luciferase mRNA was fused to the 5′UTR of ATF-4 mRNA that had multiple uORFs, while renilla (R) luciferase mRNA was fused to a 5′UTR lacking any uORFs. Agents that reduce the amount of the eIF2·GTP·Met-tRNAi ternary complex, such as N,N′-disubstituted ureas that activate HRI, increase F luciferase expression while reducing the R luciferase expression, resulting in an increased F/R luciferase ratio. The ureas of the present application were tested at 10 μM, 5 μM, 2.5 μM, and 1.25 μM concentrations in 96-well assay plates (see e.g., Chen et al, Nat. Chem. Biol. 7 (2011) 610-616; and Bai et al, ChemBioChem, 14 (2013) 1255-1262). The activity scores as the F/R ratios were calculated for every compound-treated well and normalized to F/R ratio of vehicle-treated (DMSO) wells in the same plate, arbitrarily set at 1 (F/R=1). Data obtained in the surrogate dual-luciferase eIF2α phosphorylation (DLR) assay for the series of 1-phenyl-3/4-(4-trifluorometyl) phenoxy-cycloalkyl)ureas (4-CF3-ΦcAlkΦUs) and 1-phenyl-3-(5-(4-(trifluoromethyl) phenoxy)pyrimidin-2-yl)ureas (4-CF3-ΦOPyΦUs) described herein are shown in Tables 1-2.

[2] = tested on: CHOP; assay: Western blot, CHOP expression in CRL-2813 cells; type: cell-based, human; settings: 5 μM, 8 hours, Western blot (FIG. 2B)
Procedure: FIGS. 2A-2B show HRI activators of the present application induce eIF2α phosphorylation and modify its downstream effectors. In FIG. 2A, CRL-2813 cells were treated with 5 μM of each compound for 2 hours, cell lysates were probed with phosphorylated (P-eIF2α) and total eIF2α (T-eIF2α) and β-actin specific antibodies. In FIG. 2B, CRL-2813 cells were treated with 5 μM HRI activators for 8 hours and lysates were immunoblotted with antibodies against CHOP, p27^KiPl, cyclin D1 and β-actin.
Cells cultured under recommended media conditions were plated and maintained in serum-containing media without antibiotics in 14-cm plates (Nunc) until reaching 70% confluence. Cells were then treated with compounds for 6 h, washed with cold PBS once, and lysed with M-PER Mammalian Protein Extraction Reagent (Pierce) for 30 min on ice. The cell lysates were centrifuged at 12,000 RPM for 15 min and the supernatants were transferred to fresh tubes and the concentrations were determined by BCA (Pierce). Equal amount of proteins were mixed with Laemmli Sample Buffer, heated at 100° C. for 5 min, separated by SDS-PAGE, and probed with anti-phosphoserine-51-eIF2α (Phos-eIF2α), anti-total eIF2α-specific antibodies (Total-eIF2α) (Biosource International, Hopkinton, MA), anti-CHOP, anti-cyclin D1 or anti-actin (Santa Cruz Biotechnology, CA) using procedures substantially similar to previous reports (see e.g., Aktas et al, Mol. Cell. Biol. 17 (1997) 3850-3857).
Endogenous eIF2α is the best-known substrate of HRI and the upstream regulator of the eIF2·GTP·Met-tRNAi ternary complex abundance, while CHOP expression is a downstream effector of eIF2α phosphorylation. For assessing eIF2α phosphorylation, blotted cell lysates were treated for two hours with vehicle or selected compounds using antibodies specific for the total-eIF2α and the phosphorylated-eIF2α (T-eIF2α and [PhoS^51]-eIF2α), respectively (see e.g., Aktas et al, J. Nutr. 134 (2004) 2487S-2491S) (see FIG. 2A).

| Compound | Fold stimulation of ATF-4 Surrogate eIF2α @ 1.25 μM [1] | fold induction at 1.25 µM [1] | Fold stimulation of ATF-4 Surrogate eIF2α @ 5 μM [1] | fold induction at 5 µM [1] | expression of CHOP relative to DMSO [2] |
| --- | --- | --- | --- | --- | --- |
| N#Cc1cc(NC(=O)N[C@H]2C[C@H](Oc3ccc(C(F)(F)F)cc3)C2)cc(C(F)(F)F)c1 [Compound 1-IV, 1-(3-Cyano-5-(trifluoromethyl)phenyl)-3-(trans-3-(4-(trifluoromethyl)phenoxy)cyclobutyl)urea] | 4.4 ± 1.1 fold | 4.4 | 10 ± 1.8 fold | 10 | increased the expression of CHOP |
| N#Cc1cc(NC(=O)N[C@H]2CC[C@H](Oc3ccc(C(F)(F)F)cc3)CC2)cc(C(F)(F)F)c1 [Compound 1-VI, 1-(3-cyano-5-trifluoromethyl) phenyl-3-(trans-4-(4-(trifluoromethyl)phenoxy)cyclohexyl)urea, reference compound] | 5.7 fold and 5.7 ± 1.4 fold | – | 13.8 fold and 13.8 ± 1.5 fold | – | increased the expression of CHOP |
| N#Cc1cc(F)cc(NC(=O)N[C@H]2CC[C@H](Oc3ccc(C(F)(F)F)cc3)CC2)c1 [Compound 4-VI, 1-(3-Cyano-5-fluorophenyl)-3-(trans-4-(4-(trifluoromethyl)phenoxy)cyclohexyl)urea] | – | 4.6 ± 0.7 | – | 9.3 ± 1.3 | increased the expression of CHOP |
| N#Cc1ccc(NC(=O)N[C@H]2CC[C@H](Oc3ccc(C(F)(F)F)cc3)CC2)cc1F [Compound 5-VI, 1-(4-Cyano-3-fluorophenyl)-3-(trans-4-(4-(trifluoromethyl)phenoxy)cyclohexyl)urea] | 5.5 ± 0.4 fold | 5.5 | – | 10.4 ± 1 | increased the expression of CHOP |
